Assay results from ChEMBL document CHEMBL5518250, “Targeting KRAS Diversity: Covalent Modulation of G12X and Beyond in Cancer Therapy” (J Med Chem, 2024).

Test: Binding affinity to human recombinant His-tagged KRAS G12C/C118S mutant (1 to 169 residues) expressed in Escherichia coli assessed as inhibition constant by fluorescence based analysis

Work on C=CC(=O)N1CCN(c2nc(=O)n(-c3c(C)ccnc3C(C)C)c3nc(-c4c(O)cccc4F)c(F)cc23)[C@@H](C)C1 [SOTORASIB] yielded a Ki of 86 µM.
